Patent US9693556B2, “Herbicidal pyridazinone derivatives” (SYNGENTA LIMITED, priority 2011, dated 2017)

What was measured:
Format in all cases: in vivo
Setaria faberi (SETFA) [1] = experiment: Post-emergence herbicidal glasshouse test on Setaria faberi; settings: post-emergence; 1000 g/h; evaluated after 13 days
Outline: (§1)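 Read-out: percentage herbicidal damage 13 days after spraying, given on a five-point scale (5=80-100%, 4=60-79%, 3=40-59%, 2=20-39%, 1=0-19%). Pots of standard soil; application at 1000 g/h, one day post-sowing for pre-emergence, eight days for post-emergence.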

[2] = test system: Ipomoea hederacea (IPOHE); experiment: Pre-emergence herbicidal glasshouse test on Ipomoea hederacea; settings: pre-emergence; 1000 g/h; evaluated after 13 days
Outline: as §1

[3] = test system: Echinochloa crus-galli (ECHCG); experiment: Post-emergence herbicidal glasshouse test on Echinochloa crus-galli; settings: post-emergence; 1000 g/h; evaluated after 13 days
Outline: as §1

[4] = test system: Alopecurus myosuroides (ALOMY); experiment: Post-emergence herbicidal glasshouse test on Alopecurus myosuroides; settings: post-emergence; 1000 g/h; evaluated after 13 days
Outline: as §1

[5] = test system: Ipomoea hederacea (IPOHE); experiment: Post-emergence herbicidal glasshouse test on Ipomoea hederacea; settings: post-emergence; 1000 g/h; evaluated after 13 days
Outline: as §1

[6] = test system: Echinochloa crus-galli (ECHCG); experiment: Pre-emergence herbicidal glasshouse test on Echinochloa crus-galli; settings: pre-emergence; 1000 g/h; evaluated after 13 days
Outline: as §1

[7] = test system: Amaranthus retoflexus (AMARE); experiment: Post-emergence herbicidal glasshouse test on Amaranthus retoflexus; settings: post-emergence; 1000 g/h; evaluated after 13 days
Outline: as §1

Setaria faberi (SETFA) [8] = experiment: Pre-emergence herbicidal glasshouse test on Setaria faberi; settings: pre-emergence; 1000 g/h; evaluated after 13 days
Outline: as §1

[9] = test system: Alopecurus myosuroides (ALOMY); experiment: Pre-emergence herbicidal glasshouse test on Alopecurus myosuroides; settings: pre-emergence; 1000 g/h; evaluated after 13 days
Outline: as §1

Solanum nigrum (SOLNI) [10] = experiment: Pre-emergence herbicidal glasshouse test on Solanum nigrum; settings: pre-emergence; 1000 g/h; evaluated after 13 days
Outline: as §1

Solanum nigrum (SOLNI) [11] = experiment: Post-emergence herbicidal glasshouse test on Solanum nigrum; settings: post-emergence; 1000 g/h; evaluated after 13 days
Outline: as §1

[12] = test system: Amaranthus retoflexus (AMARE); experiment: Pre-emergence herbicidal glasshouse test on Amaranthus retoflexus; settings: pre-emergence; 1000 g/h; evaluated after 13 days
Outline: as §1

CS(=O)(=O)c1cc(Cl)ccc1-c1cnn(C2CC2)c(=O)c1O [Compound 2.014]
5 (5=80-100% damage): POST Application SETFA herbicidal damage (five point scale) (Setaria faberi (SETFA) [1]) | PRE Application IPOHE herbicidal damage (five point scale) [2] | POST Application ECHCG herbicidal damage (five point scale) [3] | POST Application ALOMY herbicidal damage (five point scale) [4] | POST Application IPOHE herbicidal damage (five point scale) [5] | PRE Application ECHCG herbicidal damage (five point scale) [6] | POST Application AMARE herbicidal damage (five point scale) [7] | PRE Application SETFA herbicidal damage (five point scale) (Setaria faberi (SETFA) [8]) | PRE Application ALOMY herbicidal damage (five point scale) [9] | PRE Application SOLNI herbicidal damage (five point scale) (Solanum nigrum (SOLNI) [10]) | POST Application SOLNI herbicidal damage (five point scale) (Solanum nigrum (SOLNI) [11]) | PRE Application AMARE herbicidal damage (five point scale) [12]

CS(=O)(=O)c1cc(C(F)(F)F)ccc1-c1cnn(C2CC2)c(=O)c1O [Compound 2.015]
5 (5=80-100% damage): POST Application SETFA herbicidal damage (five point scale) (Setaria faberi (SETFA) [1]) | PRE Application IPOHE herbicidal damage (five point scale) [2] | POST Application ECHCG herbicidal damage (five point scale) [3] | POST Application ALOMY herbicidal damage (five point scale) [4] | POST Application IPOHE herbicidal damage (five point scale) [5] | PRE Application ECHCG herbicidal damage (five point scale) [6] | POST Application AMARE herbicidal damage (five point scale) [7] | PRE Application SETFA herbicidal damage (five point scale) (Setaria faberi (SETFA) [8]) | PRE Application ALOMY herbicidal damage (five point scale) [9] | PRE Application SOLNI herbicidal damage (five point scale) (Solanum nigrum (SOLNI) [10]) | POST Application SOLNI herbicidal damage (five point scale) (Solanum nigrum (SOLNI) [11]) | PRE Application AMARE herbicidal damage (five point scale) [12]

CCn1ncc(-c2ccc(C(F)(F)F)cc2S(C)(=O)=O)c(O)c1=O [Compound 2.016]
5 (5=80-100% damage): POST Application SETFA herbicidal damage (five point scale) (Setaria faberi (SETFA) [1]) | PRE Application IPOHE herbicidal damage (five point scale) [2] | POST Application ECHCG herbicidal damage (five point scale) [3] | POST Application ALOMY herbicidal damage (five point scale) [4] | POST Application IPOHE herbicidal damage (five point scale) [5] | PRE Application ECHCG herbicidal damage (five point scale) [6] | POST Application AMARE herbicidal damage (five point scale) [7] | PRE Application SETFA herbicidal damage (five point scale) (Setaria faberi (SETFA) [8]) | PRE Application ALOMY herbicidal damage (five point scale) [9] | PRE Application SOLNI herbicidal damage (five point scale) (Solanum nigrum (SOLNI) [10]) | POST Application SOLNI herbicidal damage (five point scale) (Solanum nigrum (SOLNI) [11]) | PRE Application AMARE herbicidal damage (five point scale) [12]

CCn1ncc(-c2ccc(Cl)cc2S(C)(=O)=O)c(O)c1=O [Compound 2.017]
5 (5=80-100% damage): POST Application SETFA herbicidal damage (five point scale) (Setaria faberi (SETFA) [1]) | PRE Application IPOHE herbicidal damage (five point scale) [2] | POST Application ECHCG herbicidal damage (five point scale) [3] | POST Application ALOMY herbicidal damage (five point scale) [4] | POST Application IPOHE herbicidal damage (five point scale) [5] | PRE Application ECHCG herbicidal damage (five point scale) [6] | POST Application AMARE herbicidal damage (five point scale) [7] | PRE Application SETFA herbicidal damage (five point scale) (Setaria faberi (SETFA) [8]) | PRE Application ALOMY herbicidal damage (five point scale) [9] | PRE Application SOLNI herbicidal damage (five point scale) (Solanum nigrum (SOLNI) [10]) | POST Application SOLNI herbicidal damage (five point scale) (Solanum nigrum (SOLNI) [11]) | PRE Application AMARE herbicidal damage (five point scale) [12]
